From US6235712A, “Non-aqueous polar aprotic peptide formulations” (ALZA Corporation, priority 2000, dated 2001)

Legend:
[1] = aggregation, gelation and fibrillation; cited from earlier work
[2] = Gelation of peptides in non-aqueous polar aprotic solvents; type: physicochemical; conditions: formulated in non-aqueous polar aprotic solvents; no gelation even after 12 months at 37° C.
Experimental: No gelation was found even after 12 months at 37° C. […] Thus, these solvents have an anti-gellant effect.

Compound	physical stability in aqueous solution [1]	gelation [2]
calcitonin	physically unstable	do not gel
CCNC(=O)[C@@H]1CCCN1C(=O)[C@H](CCCNC(=N)N)NC(=O)[C@H](CC(C)C)NC(=O)[C@@H](CC(C)C)NC(=O)[C@H](Cc1ccc(O)cc1)NC(=O)[C@H](CO)NC(=O)[C@H](Cc1c[nH]c2ccccc12)NC(=O)[C@H](Cc1c[nH]cn1)NC(=O)[C@@H]1CCC(=O)N1 [leuprolide]	–	do not gel
CC(C)C[C@H](NC(=O)[C@@H](COC(C)(C)C)NC(=O)[C@H](Cc1ccc(O)cc1)NC(=O)[C@H](CO)NC(=O)[C@H](Cc1c[nH]c2ccccc12)NC(=O)[C@H](Cc1cnc[nH]1)NC(=O)[C@@H]1CCC(=O)N1)C(=O)N[C@@H](CCCNC(=N)N)C(=O)N1CCC[C@H]1C(=O)NNC(N)=O [goserelin]	–	do not gel
